Data as given in publication PMC10458307, “New Scaffolds of Proteasome Inhibitors: Boosting Anticancer Potential by Exploiting the Synergy of In Silico and In Vitro Methodologies” (Pharmaceuticals, 2023).
Where “and” joins values, the source holds several entries; their conditions need not be identical. Identical values can stand only once. One block for each compound: values may come before it.

How the values were obtained:
[1] = molecular target: T1, 20S proteasome in K562 cell lysates, CT-L activity (Homo sapiens, UniProt P28074); assay: Proteasome inhibition assay in cell lysates, K562, CT-L; conditions: for inhibition at 10 µM: read-out: percentage of proteasome inhibition, CT-L, cell lysates K562, at 10 µM; for inhibition at 100 µM: read-out: percentage of proteasome inhibition, CT-L, cell lysates K562, at 100 µM
T1 sequence (P28074 60-263): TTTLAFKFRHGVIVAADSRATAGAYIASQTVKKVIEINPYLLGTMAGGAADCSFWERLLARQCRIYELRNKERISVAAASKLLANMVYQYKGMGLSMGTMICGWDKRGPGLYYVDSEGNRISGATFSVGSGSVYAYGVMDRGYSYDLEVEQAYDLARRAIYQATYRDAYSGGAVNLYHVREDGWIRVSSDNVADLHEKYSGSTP
T1 sequence (P20618 29-241 partner): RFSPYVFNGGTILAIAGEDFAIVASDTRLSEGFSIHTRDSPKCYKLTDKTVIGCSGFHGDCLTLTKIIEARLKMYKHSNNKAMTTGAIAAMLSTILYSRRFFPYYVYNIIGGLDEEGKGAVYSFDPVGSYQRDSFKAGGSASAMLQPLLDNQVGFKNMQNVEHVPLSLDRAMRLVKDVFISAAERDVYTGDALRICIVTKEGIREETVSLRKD
Protocol: Cells were obtained from several cultured cell lines: Jurkat, K562, HT-29, and HCT116. Pellets with 20 × 10^6 cells were prepared and washed with cold sterile phosphate buffered saline (PBS), 1×, pH 7.4 (Gibco, Thermo Fisher Scientific, Paisley, UK). The preparation of the lysates from several cell lines was performed based on the methodology described by Gavioli et al. [67]. Cells were resuspended in buffer containing 50 mM TRIS-HCl pH 7.4 (Nzytech, Lisboa, Portugal), 5 mM MgCl2 (≥98% purity, Merck, Hamburg, Germany), 1 mM DTT (Merck, Hamburg, Germany), 2 mM ATP (≥98% purity, Enzo Life Sciences Inc., Farmingdale, NY, USA), and 250 mM saccharose (Merck, Hamburg, Germany). Glass beads (Merck, Hamburg, Germany) equivalent to the volume of the cell suspension were added, and the mixture was vortexed for 2 min at 4 °C. Beads and cell debris were removed using 5 min centrifugation at 1000× g and 4 °C, followed by 20 min of centrifugation at 10,000× g at 4 °C. Cell lysates containing proteasomes were resuspended in “activity buffer” [50 mM TRIS-HCl (pH 7.4), 5 mM MgCl2, 1 mM DTT, 2 mM ATP (≥98% purity, Enzo Life Sciences Inc., Farmingdale, NY, USA), and 500 µM EDTA (≥98% purity, Merck, Hamburg, Germany)]. Protein concentration was determined using the Pierce™ BCA protocol (Thermo Fisher Scientific, Rockford, IL, USA). […] DMSO was added in an equal volume as used for the untreated compounds as a way to assess/control its influence in the assay. Untreated cells were used as control. In each well of a 96-well plate, 25 µL of lysate were seeded in duplicate with 25 µL of the compound to test; in the control, 25 µL of activity buffer were added to the 25 µL of lysate. A blank (50 µL of activity buffer) was added to the wells in quadruplicate. Cell lysates, pre-treated or not with different concentrations of the test compounds, were incubated for 30 min at 37 °C. […] Stock solutions (10 mM) of each substrate were prepared in DMSO, diluted in activity buffer, and 50 µL were added to all wells (final concentration of each substrate = 100 µM), followed by an incubation at 37 °C for 60 min. Samples fluorescence was measured at an excitation wavelength of 360 nm and emission of 465 nm; the fluorescence measures were performed using the GloMax-Multi + Detection System (Promega Corp., Madison, WI, USA). Activity was evaluated in fluorescence units, after being converted to percentage of proteasome inhibition and, whenever possible, expressed as IC50 by plotting the inhibition data of each compound at different concentrations against the log of the concentration of the inhibitor, using the GraphPad Prism software version 7. At least eight different concentrations of the test compounds were used.

[2] = Cell viability, MTT assay, K562; format: cell-based, human; conditions: human, K562 leukemia cells, read-out: percentage of cell viability, MTT, K562; for viability at 72 h, 10 µM: at 10 µM; for viability at 72 h, 100 µM: at 100 µM
Protocol: (§1) Whenever possible, additional concentrations were tested and IC50 values were determined.
(§2) Human leukemia Jurkat E6.1 T-cell line and K562-cell line were originally obtained from ATCC Collections (Manassas, VA, USA); human HT-29 and HCT116 colorectal carcinoma-cell lines were obtained from ECACC (Porton Down, Porton, UK). Cells were passaged for less than 6 months after and routinely tested for mycoplasma contamination using Mycoalert detection kit (Lonza, Basel, Switzerland). Jurkat, K562, and HT-29 cells were maintained in Roswell Park Memorial Institute (RPMI) 1640 with GlutaMAX™, supplemented with 1% antibiotic mixture (100 µg/mL streptomycin and 100 U/mL penicillin) and 10% heat-inactivated foetal bovine serum (FBS) (all from Gibco, Thermo Fisher Scientific, Paisley, UK). HCT116 cells were maintained in Dulbecco’s Modified Eagle Medium (DMEM) with GlutaMAX™, supplemented with 1% antibiotic mixture (100 µg/mL streptomycin and 100 U/mL penicillin) and 10% heat-inactivated FBS (all from Gibco, Thermo Fisher Scientific, Paisley, UK). Incubation was performed at 37 °C in a 5% CO2 atmosphere. Cells were routinely passaged every 2 or 3 days at 70–90% confluence; TrypLE Express (Gibco, Thermo Fisher Scientific, Paisley, UK) was used as dissociation agent for adherent cells. Trypan blue (Gibco, Thermo Fisher Scientific, Paisley, UK) was used to assess cell viability using the dye exclusion test.
(§3) To assess cell viability, the MTT assay was performed. Jurkat/K562/HT-29/HCT116 cell lines were seeded in triplicate (10,000 cells/well) in 96-well plates with 50 µL of complete medium and incubated at 37 °C, 5% CO2 for 24 h to allow the cells to adhere to the plate (in the case of adherent cells). […] Untreated cells seeded in triplicate were used as control. The blank was performed in triplicate with 100 µL of culture medium. The cells were incubated with the compounds, in triplicate, in 100 µL of total volume, at 37 °C, 5% CO2 for 72 h. […] In suspension cells (Jurkat), 25 µL of MTT were directly added to each well and, after 3 h 30 m of incubation, 100 µL of DMSO were added to solubilize the formazan crystals; in adherent cells (HT-29 and HCT116), the culture medium was removed, 25 µL of MTT were added to each well and, after 3 h 30 m of incubation, upon MTT removal, 100 µL of DMSO were added to solubilize the formazan crystals. After 15 min, the samples absorbance was measured at 570 nm and the percentage of cell viability was determined.

[3] = Cell viability, MTT assay, HT-29; format: cell-based, human; conditions: human, HT-29 colorectal carcinoma cells, read-out: percentage of cell viability, MTT, HT-29; for viability at 72 h, 10 µM: at 10 µM; for viability at 72 h, 100 µM: at 100 µM
Protocol: as §1, §2, §3

[4] = molecular target: T2, isolated human 20S proteasome, C-L activity (Homo sapiens, UniProt P28072); assay: Proteasome inhibition assay in isolated human 20S proteasomes (Proteasome-Glo), C-L activity; format: biochemical; conditions: mean ± SD
T2 construct: human purified erythrocyte-derived 20S proteasome; purchased Enzo Life Sciences, Inc; host or cells: human erythrocytes (natural source)
Description: In this assay, the peptide substrates are bound to aminoluciferin (Suc-LLVY-AML for CT-L activity, Z-nLPnLD-AML for C-L, and Z-LRR-AML for T-L), leading the cleavage of these substrates by the proteasome to the release of free aminoluciferin, which is the substrate of the buffer-contained luciferase.
To evaluate human purified erythrocyte-derived 20S proteasome inhibitory activity of the chosen compounds, the Proteasome-Glo™ 3-substrate system (Promega Corporation, Madison, WI, USA) was employed. The Proteasome-Glo™ reagents of the three proteolytic activities were prepared according to the manufacturer’s instructions, aliquoted, and stored at either −20 °C or 4 °C, avoiding freezing–thaw cycles. […] The purified 20S proteasome (Enzo Life Sciences, Inc., Farmingdale, NY, USA) was diluted in HEPES buffer 10 mM, pH 7.4, to a concentration experimentally adjusted to the signal/noise ratio obtained with each particular lot of Proteasome-Glo™ reagent, in order to have a good compromise between sensitivity and linear response. […] All assays were performed in white-walled multiwell plates (Thermo Scientific™ Sterilin™ White Microtiter™ plates, Thermo Fisher Scientific, Paisley, UK) in duplicates. The proteasome solution (25 μL) was added to each well first, then the diluted solutions of the assayed compounds (25 μL), and lastly the Proteasome-Glo™ Reagent (50 μL). […] Reagents were added to the plate well on ice, and the plate was then transferred to the plate luminometer (SpectraMax®, Molecular Devices, LLC, San Jose, CA, USA) set at 37 °C, gently mixed for 30 s, and the measurements were immediately started in kinetic mode, with data collected every 5 min for at least 60 min.
All compounds were dissolved in DMSO at a concentration of 10 mM and stored at −20 °C or 4 °C. Solutions of the test compounds were prepared at their adequate dilutions in 10 mM HEPES buffer pH 7.6 before each experiment.
To calculate the proteasome activity over time, the value of mean relative luminescence units (RLU) of blank wells at each respective time point was subtracted, and then the ratio between mean RLU of the sample and mean RLU of the positive control wells was calculated for each time point and expressed as percentage.

[5] = at 100 µM, Table 2 legend: bortezomib 10 µM
[6] = Table 2 legend: bortezomib 10 µM

IC50 [4]: 41.2 µM
SMILES: C#CCCN1CCN(c2ccc(-n3c(=O)ccc4cnc5ccc(-c6ccc(N)nc6)cc5c43)cc2C(F)(F)F)CC1 [Compound 4, 9-(6-Aminopyridin-3-yl)-1-(4-(4-(but-3-yn-1-yl)piperazin-1-yl)-3-(trifluoromethyl)phenyl)benzo[h][1,6]naphthyridin-2(1H)-one]
viability at 72 h, 10 µM [3]: 94.1% | viability at 72 h, 100 µM [3]: 34.3%

IC50 [4]: 51.1 µM | percentage of proteasome inhibition, CT-L, cell lysates K562 [1, 5]: 59% | inhibition at 10 µM [1]: 9.34% | inhibition at 100 µM [1, 6]: 59.1%
SMILES: Cc1ccc(/C(=N/NS(=O)(=O)c2ccc([N+](=O)[O-])cc2)Sc2cc(Cl)c(C)cc2S(N)(=O)=O)cc1 [Compound 3]
viability at 72 h, 10 µM [2]: 100% | viability at 72 h, 100 µM [2]: 100% | viability at 72 h, 10 µM [3]: 100% | viability at 72 h, 100 µM [3]: 100%

IC50 [4]: 2.42 µM | percentage of proteasome inhibition, CT-L, cell lysates K562 [1, 5]: 40% | inhibition at 10 µM [1]: 13.2% | inhibition at 100 µM [1, 6]: 40.1%
SMILES: O=C1c2ccccc2C(=O)c2c(Nc3ccc(S(=O)(=O)N(CCO)CCO)cc3)ccc(O)c21 [Compound 2]
viability at 72 h, 10 µM [2]: 86.3% | viability at 72 h, 10 µM [3]: 79.9% | viability at 72 h, 100 µM [3]: 65.4%

percentage of proteasome inhibition, CT-L, cell lysates K562 [1, 5]: 63% | inhibition at 10 µM [1]: 0% | inhibition at 100 µM [1, 6]: 62.7%
SMILES: Cc1ccc2ccccc2c1CSc1ncnc2c1ncn2C1OC(CO)C(O)C1O (stereo not drawn) [Compound 1]
viability at 72 h, 10 µM [2]: 93.1% | viability at 72 h, 100 µM [2]: 18.2% | viability at 72 h, 10 µM [3]: 96.7% | viability at 72 h, 100 µM [3]: 23.3%

The remaining lines, values behind:

SMILES: CC(C)C[C@H](NC(=O)[C@H](Cc1ccccc1)NC(=O)c1cnccn1)B(O)O [Bortezomib, bortezomib, reference compound]
percentage of proteasome inhibition, CT-L, cell lysates K562 ([1]; at 10 µM): 95.17% | percentage of proteasome inhibition, CT-L, cell lysates K562 [1, 5]: 99.60% and 100% | viability at 72 h, 10 µM [2]: 0% | viability at 72 h, 100 µM [2]: 0% | viability at 72 h, 10 µM [3]: 0% | viability at 72 h, 100 µM [3]: 0%

SMILES: CC(C)c1nc(CN(C)C(=O)N[C@@H](CCN2CCOCC2)C(=O)N[C@H](CC[C@H](Cc2ccccc2)NC(=O)OCc2cncs2)Cc2ccccc2)cs1 [Compound 5, cobicistat, reference compound]
viability at 72 h, 10 µM [3]: 98.3% | viability at 72 h, 100 µM [3]: 25.4%
